Calls of active or inactive are those of the source.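 Rule for the calls: active = EC50 no more than a set limit of log units above the highest dose; inactive = the rest.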
Molecular target: S. pyogenes SKKanGAS, kanamycin survival, BacTiterGlo, 6 h
Assay: SKKanGAS survival reduction under kanamycin, dose response, streptokinase promoter inhibitor project, SKKanGAS strain, luminescence, dose confirmation (AID 1902);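 note: lower survival reflects blocked streptokinase promoter driving kanamycin resistance gene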

Row | Compound | EC50
1 | Cc1cc2oc(=O)cc(CN(C)Cc3ccccc3Cl)c2cc1C | 4.2 µM
2 | Cc1c(C(=O)Nc2nc3ccccc3[nH]2)oc2c(Cl)cccc12 | 0.727 µM
3 | O=C(O)CN1C(=O)/C(=C\c2cc(Br)ccc2OCc2ccc(Cl)cc2Cl)SC1=S | 1.51 µM
4 | Cc1nn(-c2ccccc2)c(C)c1/C=N/NC(=O)c1cc(-c2cccc3ccccc23)n[nH]1 | 6.54 µM
5 | O=C(Nc1nnc(-c2ccc(Br)cc2)o1)c1ccco1 | 1.2 µM
6 | CC(C)c1ccc(OCC(=O)NNC(=S)NC(=O)C2CC2)cc1 | 0.797 µM
7 | CC1CCN(C(=O)N2c3ccccc3Sc3ccccc32)CC1 | 9.99 µM
8 | Oc1c(Br)cc(Br)cc1CNc1cccc2cccnc12 | 4.47 µM
9 | Cc1cc(Cl)c2oc(C(=O)N3CCN(C(=O)c4ccco4)CC3)c(C)c2c1 | 4.45 µM
10 | CC1CCN(c2nc(N3CCCCC3)nc(N3CCCCC3)n2)CC1 | 3.02 µM
11 | CN(C)c1nc(N/N=C/c2ccccc2O)nc(Nc2ccc(F)cc2)n1 | 3.79 µM
12 | CCCN(CC(=O)Nc1ccccc1OC)C(=O)c1ccncc1 | > 15 µM (inactive)
13 | O=C(/C=C/c1ccccc1)c1cc(Br)ccc(=O)c1O | 1.33 µM
14 | COc1ccc(CCNC(=O)c2cc(-c3ccc(Cl)c(Cl)c3)oc2C)cc1 | 12.2 µM
15 | Cc1c(N/N=C(\C#N)C(=O)c2ccccc2)c(=O)n(-c2ccccc2)n1C | 1.44 µM
16 | CCCCCCCCCCCCn1ccc(=N)cc1 | 4.1 µM
17 | Oc1ccc(/C=N/Nc2nc(-c3ccc(Cl)cc3)cc(C(F)(F)F)n2)cc1 | 7.89 µM
18 | Cc1cccc(NC(=S)Nc2ccc(Cl)c(Cl)c2)c1 | 9.6 µM
19 | CN(CC1CCCO1)S(=O)(=O)c1ccc(C(=O)Nc2ccc(F)cc2)cc1 (stereo unspecified) | > 15 µM (inactive)
20 | O=C1C=C(Nc2ccccc2)c2ccccc2C1=O | 2.44 µM
21 | COc1ccc(N=C2S/C(=C\c3ccc(OC(C)C(=O)O)c(OC)c3)C(=O)N2CCc2c[nH]c3ccccc23)cc1 (stereo unspecified) | 1.63 µM
22 | CC(C)(C)c1cc(C(=O)N/N=C/c2ccc([N+](=O)[O-])s2)n[nH]1 | 7.4 µM

Row | Compound | EC50
23 | O=[N+]([O-])c1ccc(-c2nc(Nc3cccc(O)c3)c3ccccc3n2)cc1 | 10.7 µM
24 | O=C(Nc1nc(-c2ccccn2)cs1)c1ccc(S(=O)(=O)N2CCCCC2)cc1 | 1.48 µM
25 | Cc1ccc(NC(=O)NCc2ccccn2)cc1Cl | > 15 µM (inactive)
26 | Cc1cccc(N=C2NN=C(c3c(C)[nH]c4ccccc34)CS2)c1 | 3.02 µM
27 | CCOC(=O)C1=C(C)n2c(s/c(=C/c3cccc([N+](=O)[O-])c3)c2=O)=NC1c1ccc(O)c(OC)c1 (stereo unspecified) | 10.5 µM
28 | CCOC(=O)C1=C(O)c2ccccc2C(=O)/C1=C\c1ccc(CC)cc1 | 8.49 µM
29 | CCSc1nnc(NC(=O)c2ccccn2)s1 | 4 µM
30 | Cc1cc(Br)c(OCc2ccc(C(=O)N/N=C3\CC4CC=CC34)cc2)c(Br)c1 (stereo unspecified) | 4 µM
31 | O=C(N/N=C/c1cc([N+](=O)[O-])ccc1O)c1cccc(NC(=O)c2cccc(Cl)c2)c1 | 4.69 µM
32 | COc1ccc(OC)c(CCNC(=O)C(=O)Nc2ccc3nc4n(c(=O)c3c2)CCCCC4)c1 | 10.1 µM
33 | COc1ccc(C(=O)NC(=S)NNC(=O)c2ccccc2O)cc1 | 1.44 µM
34 | N=C1/C(=C\c2ccc(-c3cccc(C(=O)O)c3)o2)C(=O)N=C2SC=C(c3ccccc3)N12 | 1.2 µM
35 | COc1ccccc1-c1cn[nH]c1-c1ccc(OCc2ccc(F)cc2)cc1O | 10.8 µM
36 | Oc1[nH]c2ccccc2c1N=NC(=S)NCCc1ccccc1 | 4.39 µM
37 | C=C1c2cccc(O)c2C(O)=C2C(=O)[C@]3(O)C(O)=C(C(N)=O)C(=O)[C@@H](N(C)C)[C@@H]3[C@@H](O)[C@H]12 | 0.093 µM
38 | Cc1c(Cl)cccc1NC(=S)NCCC(c1ccccc1)c1ccccc1 | 9.25 µM
39 | CC(=O)c1c(O)cc(O)c(C(C)=O)c1O | 2.64 µM
40 | CC(=O)C1=C(c2ccc(Br)cc2)C(=O)c2ccccc2C1=O | 1.45 µM
41 | Cc1[nH]n(-c2ccc(Cl)cc2)c(=O)c1/C=N/n1c(C)nc2ccccc2c1=O | 1.44 µM
42 | CC(C)=CCc1cc([C@@H]2CC(=O)c3ccc(O)c(CC=C(C)C)c3O2)ccc1O | 3.63 µM
43 | Cc1ccc(C(=O)c2c(C)oc3c2C(=O)C(=O)c2ccccc2-3)cc1 | 0.801 µM
44 | Cc1cc(C)c2nc(NNC(=O)c3ccc(S(=O)(=O)N4CCc5ccccc5C4)cc3)sc2c1 | 0.538 µM

Row | Compound | EC50
45 | COc1ccc(O)c(CN2CCC(n3nccc3NC(=O)CCOc3ccccc3)CC2)c1 | > 15 µM (inactive)
46 | CCS(=O)(=O)c1nc(S(=O)(=O)c2ccc(C)cc2)c(NCCN2CCOCC2)s1 | > 15 µM (inactive)
47 | CCOc1cc(N2CCOCC2)c(OCC)cc1NC(=O)C1=NN(c2cccc(C)c2)C(=O)CC1 | 13.1 µM
48 | CCCCc1ccc(NC(=O)NCc2ccccn2)cc1 | > 15 µM (inactive)
49 | COc1ccc(-c2noc(-c3ccccc3-c3ccccc3)n2)cc1 | 8.18 µM
50 | COc1cc(/C=C/C(=O)OC2CC3CCC2(C)C3(C)C)ccc1O (stereo unspecified) | 7.08 µM
51 | Nc1nonc1C(=O)NCCN=Cc1cc(Cc2ccccc2)cc(Br)c1O | 5 µM
52 | COc1ccc(NC(=S)NC(NC(=O)c2ccc(Cl)cc2Cl)C(Cl)(Cl)Cl)c([N+](=O)[O-])c1 (stereo unspecified) | 1.15 µM
53 | c1ccc(-c2nc(N3CCCCCC3)c3ccccc3n2)nc1 | 1.43 µM
54 | CCN(CC)c1ccc(C=N/C(C#N)=C(\N)C#N)cc1 | > 15 µM (inactive)
55 | O=C(O)CC/C(=C\c1cc2c(cc1Br)OCO2)c1nc2ccccc2s1 | 10.5 µM
56 | C=CCn1c(O)c(C(CC)=Nc2ccc(N(CC)CC)cc2)c(=O)[nH]c1=O | 1.66 µM
57 | Clc1ccc(CO/N=C(\Cn2ccnc2)c2ccc(Cl)cc2Cl)c(Cl)c1 | 1.95 µM
58 | O=C(CN1c2ccccc2Sc2ccccc21)NNC(=O)Nc1ccc(Cl)c(Cl)c1 | 2.23 µM
59 | CC1(C)N=C(N)N=C(N)N1c1ccccc1 | 0.325 µM
60 | O=C(NC(Cc1c[nH]c2ccccc12)C(=O)N/N=C/c1cccc2ccccc12)c1cccs1 (stereo unspecified) | 5.37 µM
61 | FC(F)(F)c1cccc(NC(=S)Nc2ccc(Cl)cc2Cl)c1 | 2.83 µM
62 | CCN(CC)c1ccc(-c2nn3c(-c4ccccc4OC)nnc3s2)cc1 | 6.21 µM
63 | CC(C)C[C@H](NC(=O)N1CC(=O)Nc2ccccc21)C(=O)N[C@H](C(=O)O)c1ccccc1 | > 15 µM (inactive)
64 | CN1c2ccsc2/C(=N/Nc2ccccc2)CS1(=O)=O | 2.21 µM
65 | O=[N+]([O-])c1cc(S(=O)(=O)Nc2cccc(Cl)c2)ccc1N=Nc1c(O)[nH]c2ccccc12 | 3.61 µM
66 | COc1cc(OC)cc(C(=O)Nc2nc(CC(=O)NCc3ccccc3OC)cs2)c1 | 12.4 µM

Row | Compound | EC50
67 | Cc1cc(C)c(C)c(OCCCOc2cccc3cccnc23)c1 | 13.5 µM
68 | Fc1cc(F)c(C2SCCN2C(=S)Nc2cccc(C(F)(F)F)c2)c(F)c1 (stereo unspecified) | 8.26 µM
69 | C[C@H]1[C@H](C)CC[C@]2(C(=O)O)CC[C@]3(C)C(=CC[C@@H]4[C@@]5(C)CC[C@H](O)C(C)(C)[C@@H]5CC[C@]43C)[C@H]12 | 1.79 µM
70 | CCC(=O)NC(=S)Nc1ccc(NC(=S)NC(=O)c2ccccc2)cc1 | 0.805 µM
71 | OC(COc1ccc2ccccc2c1Br)Cn1cnc(-c2ccccc2)c1 (stereo unspecified) | 5.71 µM
72 | C=C(C)COc1ccc(-c2n[nH]c(C)c2-c2ccccc2)c(O)c1 | 2.4 µM
73 | O=C(Cc1ccccc1)N/N=C/c1cc(Br)cc(Cl)c1O | 1.52 µM
74 | CCc1nnc(NC(=O)c2cccc(C(=O)Nc3nnc(CC)s3)n2)s1 | 0.961 µM
75 | CCOC(=O)c1ccc(NC(=O)c2nc[nH]c2C(=O)N[C@@H](Cc2ccccc2)C(=O)OC(C)(C)C)cc1 | 3.17 µM
76 | O=S(=O)(Cc1nnnn1-c1ccccc1)c1ccc(F)cc1 | > 15 µM (inactive)
77 | CCCOc1ccc(C(=O)NNC(=S)NC(=O)c2ccccc2)cc1 | 0.217 µM
78 | O=C(Nc1ccc(Oc2ccc(Cl)cc2)c(Cl)c1)c1cc(I)cc(I)c1O | < 0.06 µM
79 | Cc1noc(C)c1C(=O)Nc1nccs1 | > 15 µM (inactive)
80 | CS(=O)(=O)c1ccc2nc(NC(=O)c3ccc(NS(=O)(=O)c4ccc(F)c(F)c4)cc3)sc2c1 | 0.622 µM
81 | Cc1cccc(N2CCN(C(=O)c3ccc4nc(N5CCCCC5)sc4c3)CC2)c1C | 7.63 µM
82 | CCC(C)Sc1cc(-c2nc3ccccn3c2NC2CCCCC2)ccc1OC (stereo unspecified) | 2.94 µM
83 | Cc1cc(C(=O)N/N=C/c2cc(N=Nc3ccccc3)ccc2O)n[nH]1 | 2.02 µM
84 | Cn1nnc(-c2ccc(OCc3ccccc3F)cc2)n1 | 9.46 µM
85 | O=C(COC(=O)c1ccccc1Br)Nc1nnc(-c2ccccc2)o1 | 0.689 µM
86 | CC(C)=CCc1c(-c2ccc(O)cc2O)oc2c3c(cc(O)c2c1=O)OC(C)(C)C=C3 | 1.23 µM
87 | CCOc1cccc(/C=N/NC(=O)c2ccc3c(c2)OCCO3)c1O | 1.27 µM
88 | Cc1cccc(C(=O)OCC(=O)Nc2nnc(-c3ccccc3)o2)c1O | 2.2 µM

Row | Compound | EC50
89 | O=S(=O)(Nc1cccc2c1CCCC2)c1ccc(Cl)cc1 | 2.92 µM
90 | Cc1cc(C)c2nc(NNC(=O)c3ccc(S(=O)(=O)N4CCCCC4)cc3)sc2c1 | 1.86 µM
91 | CC[C@H]1OC(=O)C[C@@H](O)[C@H](C)[C@@H](O[C@@H]2O[C@H](C)C[C@H](N(C)C)[C@H]2O)[C@@H](CC=O)C[C@@H](C)C(=O)C=C[C@]2(C)O[C@H]2[C@@H]1C | < 0.06 µM
92 | Cc1cc(-c2csc3nc[nH]c(=S)c23)cc(C)c1C | 1.67 µM
93 | COc1ccc(N=Nc2cc(-c3ccccc3)ccc2O)cc1 | 13.1 µM
94 | C=CCn1c(Oc2ccc(C(=O)OC)cc2)nc2c1c(=O)n(C)c(=O)n2C | 7.96 µM
95 | COc1cc(C(=O)NC(=S)Nc2ccc(Cc3ccncc3)cc2)cc(OC)c1OC | 2.45 µM
96 | O=C(NC(=S)N1CCN(c2c(Cl)cccc2[N+](=O)[O-])CC1)c1cccs1 | 5.15 µM
97 | CCCc1ccc(Oc2cn[nH]c2-c2ccc(O)c(C)c2O)cc1 | 1.8 µM
98 | Clc1ccc(-c2cc3ccccc3nc2N2CCCC2)cc1 | 5.14 µM
99 | Cc1cc(/C=C2/C(=N)N3C(=NC2=O)SN=C3S(C)(=O)=O)c(C)n1-c1ccc(F)cc1 | 4.98 µM
100 | CN(C(=O)Cc1c(C(=O)O)n(C)c2ccccc12)c1ccc(F)cc1 | > 15 µM (inactive)
101 | Cc1cccc(NC(=O)c2sc(Cl)nc2-c2ccccc2)c1 | 11.2 µM
102 | O=C(CN1C(=O)S/C(=C\C=C\c2ccccc2)C1=O)Nc1ccccc1C(=O)O | 5.62 µM
103 | CC(/C=C1\SC(=O)N(CC(=O)Nc2ccc(O)cc2)C1=O)=C\c1ccccc1 | 8.02 µM
104 | COCCSc1ccccc1C(=O)N1CCCC(C)C1 (stereo unspecified) | > 15 µM (inactive)
105 | Cc1ccc(C(C)C)cc1NC(=O)Nc1ccc([N+](=O)[O-])cc1 | 3.75 µM
106 | N#Cc1c(-c2c(Cl)cccc2Cl)noc1/C=C/Nc1ccc(C(=O)O)cc1 | 4.6 µM
